Laboratory results from patent publication US9944666B2, “Compounds that are S1P modulating agents and/or ATX modulating agents” (BIOGEN MA INC., priority 2012, dated 2018).
pIC50: −log10 of the molar value.

The compounds below were run against T1, Human ATX protein (Homo sapiens, UniProt Q13822) (assay: ATX biochemical FRET assay with FS-3 substrate). Settings: FS-3 2 μM, ATX 1.0 μg/mL, room temperature 2 hours, fluorescence 485/538 nm.
T1 construct: made in house
From the text: ATX (Autotaxin) is a 125 KDa glycoprotein with lysophospholipase D (LPLD) activity that generates the bioactive lipid lysophosphatidic acid (LPA) from lysophosphatidylcholine (LPC). The ATX biochemical assay utilizes a FRET (fluorescence resonance energy transfer) technology platform. The fluorescence signal of FRET substrate FS-3 is quenched due to intra-molecular FRET of a fluorophore to a non-fluorescing quencher (Ferguson, C. G., et al., Org Lett. 2006 May 11; 8(10): 2023-2026, which is incorporated by reference in its entirety). ATX catalyzes the hydrolysis of the substrate which separates the dabsyl quencher from the fluorescein reporter, which becomes fluorescent. The reaction is monitored by a SpectraMax M5 (Molecular Devices, Sunnyvale, Calif.) with at excitation wavelength 485 nm and emission wavelength […].
Fatty acid free-BSA (Sigma A8806): 10 mg/ml, in H2O, stored at 4° C.
2×ATX assay buffer: 100 mM Tris, 280 mM NaCl, 10 mM KCl, 2 mM CaCl2, 2 mM MgCl2, pH 7.4.
Human ATX protein: expressed and purified in house. Stored at −80° C.
Substrate FS-3 (Echelon, L-2000): 100 μg in 77.74 μL H2O (1 mM stock), stored at −20° C.
384-well flat bottom plates—Corning #3575.
Compound dilution—All compounds were provided at 10 mM in 100% DMSO. In the first well, 2 μL of 10 mM compound was added to 78 μL of DMSO (1:40 dilution). In subsequent wells 3-fold dilution (total 10 dilutions) were performed.
1×ATX assay buffer was made up with a final concentration of 1 mg/mL fatty acid free-BSA using 2×ATX assay buffer, 10 mg/ml fatty acid free-BSA and ddH2O.
ATX protein was diluted with 1×ATX assay buffer to a concentration of 1.32 μg/mL (1.32×). 38 μL was added per well to the assay plate. The final concentration of ATX in the reaction as 1.0 μg/mL.
2 μL per well of compounds was transferred to provide the desired concentration. The plate was centrifuged, then incubated at room temperature for 30 minutes on the shaker.
FS-3 was diluted with 1×ATX assay buffer to a concentration of FS-3 of 10 μM (5×). Then, 10 μL was added per well to the assay plate. The final concentration of FS-3 in the reaction was 2 μM. The plate was centrifuged. The plate was kept shaking at room temperature for 2 hours. Because FS-3 substrate is light sensitive, plates were kept covered and protected from light.
Fluorescence was measured using SpectraMax M5 (excitation at 485 nm/emission at 538 nm, top read).

Structure (SMILES) | pIC50
CC[C@H]1CC[C@@H](Oc2ccc3cc(C(C)N4C5CCC4CC(C(=O)O)C5)ccc3c2C(F)(F)F)CC1 (relative stereo) [Example 176, 8-(1-(6-((cis-4-ethylcyclohexyl)oxy)-5-(trifluoromethyl)naphthalen-2-yl)ethyl)-8-azabicyclo[3.2.1]octane-3-carboxylic acid] | ≥ 7.00
CCC(c1ccc2c(C(F)(F)F)c(O[C@H]3CC[C@@H](C(F)(F)F)CC3)ccc2c1)N1C2CCCC1CC(C(=O)O)C2 (relative stereo) [Example 177, 9-(1-(6-((cis-4-trifluoromethylcyclohexyl)oxy)-5-(trifluoromethyl)naphthalen-2-yl)propyl)-9-azabicyclo[3.3.1]nonane-3-carboxylic acid] | ≥ 7.00
CCC(c1ccc2c(C(F)(F)F)c(O[C@H]3CC[C@@H](C(F)(F)F)CC3)ccc2c1)N1C2CCC1CC(C(=O)O)C2 (relative stereo) [Example 178, 8-(1-(6-((cis-4-trifluoromethylcyclohexyl)oxy)-5-(trifluoromethyl)naphthalen-2-yl)propyl)-8-azabicyclo[3.2.1]octane-3-carboxylic acid] | ≥ 7.00
CCC(c1ccc2c(C(F)(F)F)c(O[C@H]3CC[C@@H](CC)CC3)ccc2c1)N1C2CCCC1CC(C(=O)O)C2 (relative stereo) [Example 179, 9-(1-(6-((cis-4-ethylcyclohexyl)oxy)-5-(trifluoromethyl)naphthalen-2-yl)propyl)-9-azabicyclo[3.3.1]nonane-3-carboxylic acid] | ≥ 7.00
CCC(c1ccc2c(C(F)(F)F)c(O[C@H]3CC[C@@H](CC)CC3)ccc2c1)N1C2CCC1CC(C(=O)O)C2 (relative stereo) [Example 180, 8-(1-(6-((cis-4-ethylcyclohexyl)oxy)-5-(trifluoromethyl)naphthalen-2-yl)propyl)-8-azabicyclo[3.2.1]octane-3-carboxylic acid] | ≥ 7.00
CC[C@H]1CC[C@@H](Oc2ccc3cc(C(C)N4C5CCCC4CC(C(=O)O)C5)ccc3c2Cl)CC1 (relative stereo) [Example 182, 9-(1-(6-((cis-4-ethylcyclohexyl)oxy)-5-chloronaphthalen-2-yl)ethyl)-9-azabicyclo[3.3.1]nonane-3-carboxylic acid] | ≥ 7.00
C[C@H]1CC[C@@H](Oc2ccc3cc(CN4C5CCCC4CC(C(=O)O)C5)ccc3c2Cl)CC1 (relative stereo) [Example 183, 9-((5-Chloro-6-((cis-4-methylcyclohexyl)oxy)naphthalen-2-yl)methyl)-9-azabicyclo[3.3.1]nonane-3-carboxylic acid] | ≥ 6.60
CC[C@H]1CC[C@@H](Oc2ccc3cc(C(C)N4C5CCC4CC(C(=O)O)C5)ccc3c2Cl)CC1 (relative stereo) [Example 184, 8-(1-(5-Chloro-6-((cis-4-ethylcyclohexyl)oxy)naphthalen-2-yl)ethyl)-8-azabicyclo[3.2.1]octane-3-carboxylic acid] | ≥ 7.00
CC[C@H]1CC[C@@H](Oc2ccc3cc(CN4C5CCC4CC(C(=O)O)C5)ccc3c2Cl)CC1 (relative stereo) [Example 185, 8-((5-Chloro-6-((cis-4-ethylcyclohexyl)oxy)naphthalen-2-yl)methyl)-8-azabicyclo[3.2.1]octane-3-carboxylic acid] | ≥ 7.00
C[C@H](c1ccc2c(C(F)(F)F)c(O[C@H]3CC[C@@H](C(F)(F)F)CC3)ccc2c1)N1C2CCCC1CC(C(=O)O)C2 (single isomer, unassigned) [Example 89] | ≥ 7.00
C[C@@H](c1ccc2c(C(F)(F)F)c(O[C@H]3CC[C@@H](C(F)(F)F)CC3)ccc2c1)N1C2CCCC1CC(C(=O)O)C2 (single isomer, unassigned) [Example 90] | ≥ 7.00
CC[C@@H](c1ccc2c(C(F)(F)F)c(O[C@H]3CC[C@@H](C)CC3)ccc2c1)N1C2CCC1CC(C(=O)O)C2 (single isomer, unassigned) [Example 233, 8-((s)-1-(6-((cis-4-methylcyclohexyl)oxy)-5-(trifluoromethyl)naphthalen-2-yl)propyl)-8-azabicyclo[3.2.1]octane-3-carboxylic acid] | ≥ 7.00
CC[C@H]1CC[C@@H](Oc2ccc3cc([C@@H](C)N4C5CCCC4CC(C(=O)O)C5)ccc3c2Cl)CC1 (single isomer, unassigned) [Example 238] | ≥ 7.00
C[C@H](c1ccc2c(Cl)c(O[C@H]3CC[C@@H](C(F)(F)F)CC3)ccc2c1)N1C2CCCC1CC(C(=O)O)C2 (single isomer, unassigned) [Example 240] | ≥ 7.00
C[C@H](c1ccc2c(Cl)c(O[C@H]3CC[C@@H](C(F)(F)F)CC3)ccc2c1)N1C2CCC1CC(C(=O)O)C2 (single isomer, unassigned) [Example 242] | ≥ 7.00
CC[C@@H](c1ccc2c(Cl)c(O[C@H]3CC[C@@H](CC)CC3)ccc2c1)N1C2CCCC1CC(C(=O)O)C2 (single isomer, unassigned) [Example 249] | ≥ 7.00
CC[C@H](c1ccc2c(C(F)(F)F)c(O[C@H]3CC[C@@H](C(F)(F)F)CC3)ccc2c1)N1C2CCC1CC(C(=O)O)C2 (single isomer, unassigned) [Example 287] | ≥ 7.00
CC[C@@H](c1ccc2c(C(F)(F)F)c(O[C@H]3CC[C@@H](C(F)(F)F)CC3)ccc2c1)N1C2CCC1CC(C(=O)O)C2 (single isomer, unassigned) [Example 288] | ≥ 6.60
CC[C@H]1CC[C@@H](Oc2ccc3cc([C@@H](C)N4C5CCC4CC(C(=O)O)C5)ccc3c2C(F)(F)F)CC1 (single isomer, unassigned) [Example 289] | ≥ 7.00
CC[C@H]1CC[C@@H](Oc2ccc3cc([C@H](C)N4C5CCC4CC(C(=O)O)C5)ccc3c2C(F)(F)F)CC1 (single isomer, unassigned) [Example 290] | ≥ 7.00
CC[C@H]1CC[C@@H](Oc2ccc3cc([C@@H](C)N4C5CCCC4CC(C(=O)O)C5)ccc3c2C(F)(F)F)CC1 (single isomer, unassigned) [Example 291] | ≥ 7.00
CC[C@H]1CC[C@@H](Oc2ccc3cc([C@H](C)N4C5CCCC4CC(C(=O)O)C5)ccc3c2C(F)(F)F)CC1 (single isomer, unassigned) [Example 292] | ≥ 7.00
CC[C@H](c1ccc2c(C(F)(F)F)c(O[C@H]3CC[C@@H](CC)CC3)ccc2c1)N1C2CCC1CC(C(=O)O)C2 (single isomer, unassigned) [Example 293] | ≥ 6.30
CC[C@@H](c1ccc2c(C(F)(F)F)c(O[C@H]3CC[C@@H](CC)CC3)ccc2c1)N1C2CCC1CC(C(=O)O)C2 (single isomer, unassigned) [Example 294] | ≥ 7.00
CC[C@H](c1ccc2c(C(F)(F)F)c(O[C@H]3CC[C@@H](C(F)(F)F)CC3)ccc2c1)N1C2CCCC1CC(C(=O)O)C2 (single isomer, unassigned) [Example 295] | ≥ 6.60
CC[C@@H](c1ccc2c(C(F)(F)F)c(O[C@H]3CC[C@@H](C(F)(F)F)CC3)ccc2c1)N1C2CCCC1CC(C(=O)O)C2 (single isomer, unassigned) [Example 296] | ≥ 7.00
CC(c1ccc2c(C(F)(F)F)c(O[C@H]3CC[C@@H](C)CC3)ccc2c1)N1C2CCCC1CC(C(=O)O)C2 (single isomer, unassigned; enantiomer 1) [Example 94, 9-(1-(6-((cis-4-Methylcyclohexyl)oxy)-5-(trifluoromethyl)naphthalen-2-yl)ethyl)-9-azabicyclo[3.3.1]nonane-3-carboxylic acid, enantiomer 1] | ≥ 7.00
